The kinase profiling compilation of Christmann-Franck et al. (2016)

Experiments:
Test in all cases: KINOMEscan competition binding
Conditions in all cases: compound 2.0 µM
AAK1 (human) = AAK1 (human) (UniProt Q2M2I8)
[1] = system: ABL1 (human), P00519 [E255K]
ACVR1B (human) = ACVR1B (human) (UniProt P36896)
ADCK4 (human) = ADCK4 (human) (UniProt Q96D53)
AKT1 (human) = AKT1 (human) (UniProt P31749)
BTK (human) = BTK (human) (UniProt Q06187)
CAMK2B (human) = CAMK2B (human) (UniProt Q13554)
CDC42BPA (human) = CDC42BPA (human) (UniProt Q5VT25)
CIT (human) = CIT (human) (UniProt O14578)
CLK4 (human) = CLK4 (human) (UniProt Q9HAZ1)
CRK2 (P.falciparum) = CRK2 (P.falciparum) (UniProt P61075)
CSF1R (human) = CSF1R (human) (UniProt P07333)
CSNK1E (human) = CSNK1E (human) (UniProt P49674)
CSNK1G2 (human) = CSNK1G2 (human) (UniProt P78368)
[2] = system: EGFR (human), P00533 [L858R]
[3] = system: EGFR (human), P00533 [T790M]
EIF2AK2 (human) = EIF2AK2 (human) (UniProt P19525)
Chain of EIF2AK2 (human) (P19525 whole entry, looked up): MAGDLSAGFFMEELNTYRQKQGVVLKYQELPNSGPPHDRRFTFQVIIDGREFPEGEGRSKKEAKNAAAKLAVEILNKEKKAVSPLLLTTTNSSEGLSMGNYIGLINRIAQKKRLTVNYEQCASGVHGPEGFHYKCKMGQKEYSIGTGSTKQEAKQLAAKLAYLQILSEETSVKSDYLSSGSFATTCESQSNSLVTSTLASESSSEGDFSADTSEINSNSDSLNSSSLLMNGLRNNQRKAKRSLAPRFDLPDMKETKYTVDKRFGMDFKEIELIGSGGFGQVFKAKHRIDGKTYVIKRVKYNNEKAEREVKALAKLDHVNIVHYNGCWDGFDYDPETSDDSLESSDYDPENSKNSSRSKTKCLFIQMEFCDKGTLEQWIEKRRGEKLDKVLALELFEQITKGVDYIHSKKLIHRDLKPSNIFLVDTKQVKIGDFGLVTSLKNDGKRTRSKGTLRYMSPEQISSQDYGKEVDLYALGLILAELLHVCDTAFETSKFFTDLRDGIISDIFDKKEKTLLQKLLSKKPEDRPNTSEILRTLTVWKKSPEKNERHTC

EPHA1 (human) = EPHA1 (human) (UniProt P21709)
EPHA2 (human) = EPHA2 (human) (UniProt P29317)
Chain of EPHA2 (human) (P29317 whole entry, looked up): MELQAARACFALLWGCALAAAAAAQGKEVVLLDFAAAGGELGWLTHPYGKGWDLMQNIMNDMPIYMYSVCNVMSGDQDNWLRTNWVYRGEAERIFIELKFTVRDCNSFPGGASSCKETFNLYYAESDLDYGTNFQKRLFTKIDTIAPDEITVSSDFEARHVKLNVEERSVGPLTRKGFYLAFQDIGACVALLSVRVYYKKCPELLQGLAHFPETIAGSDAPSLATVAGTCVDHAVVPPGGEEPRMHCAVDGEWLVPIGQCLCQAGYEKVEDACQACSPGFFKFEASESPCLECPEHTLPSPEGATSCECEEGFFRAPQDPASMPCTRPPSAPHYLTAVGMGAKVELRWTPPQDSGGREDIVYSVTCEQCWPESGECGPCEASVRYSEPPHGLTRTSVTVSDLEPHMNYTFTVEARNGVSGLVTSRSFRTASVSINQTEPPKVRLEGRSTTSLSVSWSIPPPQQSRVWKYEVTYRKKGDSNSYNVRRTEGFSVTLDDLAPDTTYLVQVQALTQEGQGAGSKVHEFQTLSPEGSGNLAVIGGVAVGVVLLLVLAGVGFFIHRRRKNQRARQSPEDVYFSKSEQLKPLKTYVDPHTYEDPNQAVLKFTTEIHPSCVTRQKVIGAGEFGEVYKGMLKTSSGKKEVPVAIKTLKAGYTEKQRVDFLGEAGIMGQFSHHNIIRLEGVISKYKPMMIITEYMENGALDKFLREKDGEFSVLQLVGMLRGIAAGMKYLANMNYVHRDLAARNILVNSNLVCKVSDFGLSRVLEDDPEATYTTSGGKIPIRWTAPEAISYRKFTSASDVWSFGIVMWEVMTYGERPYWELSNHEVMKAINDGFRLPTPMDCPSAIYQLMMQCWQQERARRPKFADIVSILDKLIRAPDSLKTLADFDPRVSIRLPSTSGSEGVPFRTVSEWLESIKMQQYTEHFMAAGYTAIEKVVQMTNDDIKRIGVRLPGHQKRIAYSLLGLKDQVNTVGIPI

FLT1 (human) = FLT1 (human) (UniProt P17948)
HIPK2 (human) = HIPK2 (human) (UniProt Q9H2X6)
INSR (human) = INSR (human) (UniProt P06213)
[4] = system: KIT (human), P10721 [V559D/V654A]
LRRK2 (human) = LRRK2 (human) (UniProt Q5S007)
MAP2K1 (human) = MAP2K1 (human) (UniProt Q02750)
MAP2K3 (human) = MAP2K3 (human) (UniProt P46734)
MAP3K1 (human) = MAP3K1 (human) (UniProt Q13233)
MAPK11 (human) = MAPK11 (human) (UniProt Q15759)
MAPK3 (human) = MAPK3 (human) (UniProt P27361)
Chain of MAPK3 (human) (P27361 whole entry, looked up): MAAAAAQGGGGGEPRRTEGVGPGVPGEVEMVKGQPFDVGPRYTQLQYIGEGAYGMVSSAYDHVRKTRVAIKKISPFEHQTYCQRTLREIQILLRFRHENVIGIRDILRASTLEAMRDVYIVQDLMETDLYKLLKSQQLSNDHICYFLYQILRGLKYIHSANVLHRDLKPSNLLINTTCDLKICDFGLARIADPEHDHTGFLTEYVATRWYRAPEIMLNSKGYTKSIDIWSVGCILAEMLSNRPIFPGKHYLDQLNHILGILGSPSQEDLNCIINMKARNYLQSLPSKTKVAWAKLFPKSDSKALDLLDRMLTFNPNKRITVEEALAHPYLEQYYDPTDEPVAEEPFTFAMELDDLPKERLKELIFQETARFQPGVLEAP

[5] = system: MET (human), P08581 [M1250T]
[6] = system: MET (human), P08581 [Y1235D]
NEK3 (human) = NEK3 (human) (UniProt P51956)
PAK3 (human) = PAK3 (human) (UniProt O75914)
[7] = system: PIK3CA (human), P42336 [C420R]
[8] = system: PIK3CA (human), P42336 [E545K]
PIP4K2B (human) = PIP4K2B (human) (UniProt P78356)
PLK2 (human) = PLK2 (human) (UniProt Q9NYY3)
Chain of PLK2 (human) (Q9NYY3 whole entry, looked up): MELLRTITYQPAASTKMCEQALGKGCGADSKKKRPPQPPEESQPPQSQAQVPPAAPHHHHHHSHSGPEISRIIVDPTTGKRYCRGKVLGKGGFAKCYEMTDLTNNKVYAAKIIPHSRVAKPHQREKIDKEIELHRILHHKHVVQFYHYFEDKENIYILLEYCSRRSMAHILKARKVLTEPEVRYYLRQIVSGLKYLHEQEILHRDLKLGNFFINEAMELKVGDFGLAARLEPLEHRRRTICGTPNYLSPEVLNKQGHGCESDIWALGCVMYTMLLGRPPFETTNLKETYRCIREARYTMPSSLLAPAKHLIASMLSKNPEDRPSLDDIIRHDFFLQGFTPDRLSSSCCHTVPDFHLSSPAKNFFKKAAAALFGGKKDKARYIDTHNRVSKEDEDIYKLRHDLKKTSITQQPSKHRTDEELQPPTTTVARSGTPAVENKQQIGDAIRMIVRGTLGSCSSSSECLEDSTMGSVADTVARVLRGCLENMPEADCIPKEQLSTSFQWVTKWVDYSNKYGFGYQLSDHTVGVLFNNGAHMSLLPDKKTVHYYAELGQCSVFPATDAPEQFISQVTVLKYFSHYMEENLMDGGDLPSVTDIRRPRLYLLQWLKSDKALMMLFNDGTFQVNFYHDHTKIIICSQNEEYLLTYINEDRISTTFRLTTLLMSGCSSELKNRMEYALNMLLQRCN

PRKCD (human) = PRKCD (human) (UniProt Q05655)
PRKG2 (human) = PRKG2 (human) (UniProt Q13237)
[9] = system: RET (human), P07949 [M918T]
Chain of RET (human), P07949 [M918T] (P07949 whole entry M918T, looked up): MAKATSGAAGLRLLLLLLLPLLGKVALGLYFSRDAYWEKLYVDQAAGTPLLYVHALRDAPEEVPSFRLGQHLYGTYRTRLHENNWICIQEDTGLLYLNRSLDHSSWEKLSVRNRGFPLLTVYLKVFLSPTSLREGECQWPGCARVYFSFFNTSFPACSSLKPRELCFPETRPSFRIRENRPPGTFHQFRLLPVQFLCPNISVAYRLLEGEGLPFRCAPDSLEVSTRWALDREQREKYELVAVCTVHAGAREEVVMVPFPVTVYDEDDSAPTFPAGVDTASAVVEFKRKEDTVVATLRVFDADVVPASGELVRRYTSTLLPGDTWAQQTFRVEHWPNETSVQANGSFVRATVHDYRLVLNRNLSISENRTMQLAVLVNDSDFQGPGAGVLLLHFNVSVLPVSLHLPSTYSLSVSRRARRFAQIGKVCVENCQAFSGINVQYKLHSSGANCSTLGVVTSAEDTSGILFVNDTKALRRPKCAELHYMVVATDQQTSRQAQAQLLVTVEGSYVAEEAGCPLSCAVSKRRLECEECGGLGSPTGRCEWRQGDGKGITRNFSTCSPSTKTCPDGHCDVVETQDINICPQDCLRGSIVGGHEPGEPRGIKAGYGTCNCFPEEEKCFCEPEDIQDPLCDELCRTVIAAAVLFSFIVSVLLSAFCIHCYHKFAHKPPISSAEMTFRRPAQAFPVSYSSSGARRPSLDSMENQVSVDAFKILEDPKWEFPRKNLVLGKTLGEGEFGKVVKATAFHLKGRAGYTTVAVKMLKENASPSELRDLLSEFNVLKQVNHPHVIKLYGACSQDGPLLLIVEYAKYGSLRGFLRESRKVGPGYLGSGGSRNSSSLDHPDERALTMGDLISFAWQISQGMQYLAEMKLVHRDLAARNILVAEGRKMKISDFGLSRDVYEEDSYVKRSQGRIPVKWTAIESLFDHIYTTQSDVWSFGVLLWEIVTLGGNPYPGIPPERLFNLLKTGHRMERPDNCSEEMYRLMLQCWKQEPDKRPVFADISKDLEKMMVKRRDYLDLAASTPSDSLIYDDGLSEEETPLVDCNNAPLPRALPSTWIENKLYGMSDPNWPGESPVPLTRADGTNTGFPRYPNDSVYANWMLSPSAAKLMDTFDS

RPS6KA5 KD2 (human) = RPS6KA5 KD2 (human) (UniProt O75582)
SRC (human) = SRC (human) (UniProt P12931)
TRPM6 (human) = TRPM6 (human) (UniProt Q9BX84)

Chain of BTK (human) (Q06187 whole entry, looked up): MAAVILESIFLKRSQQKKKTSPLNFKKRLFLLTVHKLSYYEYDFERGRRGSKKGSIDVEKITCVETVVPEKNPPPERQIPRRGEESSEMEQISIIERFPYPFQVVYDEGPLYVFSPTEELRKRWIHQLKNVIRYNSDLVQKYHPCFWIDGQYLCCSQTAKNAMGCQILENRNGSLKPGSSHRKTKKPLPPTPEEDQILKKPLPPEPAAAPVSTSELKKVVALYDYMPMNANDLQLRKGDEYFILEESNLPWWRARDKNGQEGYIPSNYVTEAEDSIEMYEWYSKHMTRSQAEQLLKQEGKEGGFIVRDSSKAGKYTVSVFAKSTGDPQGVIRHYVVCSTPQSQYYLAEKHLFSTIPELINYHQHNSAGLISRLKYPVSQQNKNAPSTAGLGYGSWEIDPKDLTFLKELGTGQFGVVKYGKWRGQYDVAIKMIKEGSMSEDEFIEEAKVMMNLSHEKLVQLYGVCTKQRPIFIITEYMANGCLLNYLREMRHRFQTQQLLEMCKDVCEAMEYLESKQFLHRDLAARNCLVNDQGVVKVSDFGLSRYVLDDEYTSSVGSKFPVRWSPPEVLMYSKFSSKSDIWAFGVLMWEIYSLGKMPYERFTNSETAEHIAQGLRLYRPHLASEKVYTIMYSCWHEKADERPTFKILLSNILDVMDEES
Chain of ACVR1B (human) (P36896 whole entry, looked up): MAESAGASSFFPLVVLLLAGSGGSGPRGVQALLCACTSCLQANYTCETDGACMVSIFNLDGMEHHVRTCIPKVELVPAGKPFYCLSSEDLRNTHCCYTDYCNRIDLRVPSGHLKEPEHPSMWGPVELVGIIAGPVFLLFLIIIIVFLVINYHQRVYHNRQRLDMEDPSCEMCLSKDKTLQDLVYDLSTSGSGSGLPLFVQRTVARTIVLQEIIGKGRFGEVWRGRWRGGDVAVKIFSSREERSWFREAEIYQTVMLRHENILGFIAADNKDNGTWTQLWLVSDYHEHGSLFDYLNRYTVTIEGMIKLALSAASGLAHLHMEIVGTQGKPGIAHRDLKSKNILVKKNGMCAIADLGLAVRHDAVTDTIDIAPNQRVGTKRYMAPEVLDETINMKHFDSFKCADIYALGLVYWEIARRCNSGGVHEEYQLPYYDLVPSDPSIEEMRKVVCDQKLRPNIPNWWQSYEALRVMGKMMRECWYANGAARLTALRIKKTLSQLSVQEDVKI

N#Cc1ccc2ncnc(NCCc3ccc4ccccc4c3)c2c1
kinase still bound, per cent of control (AAK1 (human)): 86% | kinase still bound, per cent of control [1]: 100% | kinase still bound, per cent of control (ACVR1B (human)): 100% | kinase still bound, per cent of control (ADCK4 (human)): 100% | kinase still bound, per cent of control (AKT1 (human)): 81% | kinase still bound, per cent of control (BTK (human)): 86% | kinase still bound, per cent of control (CAMK2B (human)): 88% | kinase still bound, per cent of control (CDC42BPA (human)): 100% | kinase still bound, per cent of control (CIT (human)): 91% | kinase still bound, per cent of control (CLK4 (human)): 60% | kinase still bound, per cent of control (CRK2 (P.falciparum)): 100% | kinase still bound, per cent of control (CSF1R (human)): 77% | kinase still bound, per cent of control (CSNK1E (human)): 100% | kinase still bound, per cent of control (CSNK1G2 (human)): 87% | kinase still bound, per cent of control [2]: 96% | kinase still bound, per cent of control [3]: 100% | kinase still bound, per cent of control (EIF2AK2 (human)): 72% | kinase still bound, per cent of control (EPHA1 (human)): 89% | kinase still bound, per cent of control (EPHA2 (human)): 100% | kinase still bound, per cent of control (FLT1 (human)): 89% | kinase still bound, per cent of control (HIPK2 (human)): 87% | kinase still bound, per cent of control (INSR (human)): 100% | kinase still bound, per cent of control [4]: 100% | kinase still bound, per cent of control (LRRK2 (human)): 85% | kinase still bound, per cent of control (MAP2K1 (human)): 96% | kinase still bound, per cent of control (MAP2K3 (human)): 86% | kinase still bound, per cent of control (MAP3K1 (human)): 92% | kinase still bound, per cent of control (MAPK11 (human)): 100% | kinase still bound, per cent of control (MAPK3 (human)): 95% | kinase still bound, per cent of control [5]: 73% | kinase still bound, per cent of control [6]: 100% | kinase still bound, per cent of control (NEK3 (human)): 100% | kinase still bound, per cent of control (PAK3 (human)): 100% | kinase still bound, per cent of control [7]: 100% | kinase still bound, per cent of control [8]: 94% | kinase still bound, per cent of control (PIP4K2B (human)): 100% | kinase still bound, per cent of control (PLK2 (human)): 98% | kinase still bound, per cent of control (PRKCD (human)): 91% | kinase still bound, per cent of control (PRKG2 (human)): 100% | kinase still bound, per cent of control [9]: 89% | kinase still bound, per cent of control (RPS6KA5 KD2 (human)): 100% | kinase still bound, per cent of control (SRC (human)): 94% | kinase still bound, per cent of control (TRPM6 (human)): 100%
